According to patent US20210349082A1, “ANALYSIS INSTRUMENT” (First Light Diagnostics, Inc., priority 2018, published 2021):
Where two headings read alike, the source gives them in different places.

Assays:
[1] = tested on: K. pneumonaie strain in clinical urine sample BIUR0084; assay: Automated MultiPath AST cartridge on clinical urine sample; assay type: cell-based; settings: clinical urine sample BIUR0084 (K. pneumoniae); 2 antibiotic concentrations; 4 h growth; fold growth value of 2
[2] = tested on: P. aeruginosa; settings: cited from earlier work

Compound | sensitive/resistant call by MulitPath [1] | previously determined antibiotic resistance ([2]; P. aeruginosa ATCC 27853) | previously determined antibiotic resistance ([2]; P. aeruginosa CDC0105) | previously determined antibiotic resistance ([2]; P. aeruginosa CDC0111) | previously determined antibiotic resistance ([2]; P. aeruginosa CDC0232) | previously determined antibiotic resistance ([2]; P. aeruginosa CDC0242) | previously determined antibiotic resistance ([2]; P. aeruginosa CDC0247) | previously determined antibiotic resistance ([2]; P. aeruginosa CDC0251) | previously determined antibiotic resistance ([2]; P. aeruginosa CDC0253) | previously determined antibiotic resistance ([2]; P. aeruginosa CDC0259) | previously determined antibiotic resistance ([2]; P. aeruginosa CDC0261) | previously determined antibiotic resistance ([2]; P. aeruginosa CDC0262)
Cc1nnc(SCC2=C(C(=O)O)N3C(=O)[C@@H](NC(=O)Cn4cnnn4)[C@H]3SC2)s1 [Cefazolin] | resistant | – | – | – | – | – | – | – | – | – | – | –
Trimethoprim/Sulfamethoxazole | resistant | Intrinsically | Intrinsically | Intrinsically | Intrinsically | Intrinsically | Intrinsically | Intrinsically | Intrinsically | Intrinsically | Intrinsically | Intrinsically
